From the supplement of paper PMC11061612

Columns and labels:
Experiment in all cases: combination Emax (second highest fraction inhibited in the dose matrix, 72 h); higher = more inhibition; extreme values may be limits of the assay
[1] = tested on: KU-19-19 (Bladder Carcinoma)
Procedure, shortened: (§1)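 Cell lines in DMEM/F12 or RPMI with 10% FBS were plated in 1536-well plates, held 24 hours at 37°C, 5% CO2, then given two-drug dose matrices for 72 hours (DMSO typically 0.2%). Viability was read by CellTiter-Glo 2.0 luminescence and scaled as inhibition from 0 (vehicle wells) to 1 (blank wells). Combination Emax is the second-highest inhibition in the matrix; Bliss excess is observed combination effect minus expected EA + EB − EA·EB, EA and EB being single-agent effects.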

[2] = tested on: BV-173 (Chronic Myelogenous Leukemia)
Procedure, shortened: as §1

GI-1 (Glioblastoma) = tested on: GI-1 (Glioblastoma)
Procedure, shortened: as §1

[3] = tested on: SCC-9 (Oral Cavity Carcinoma)
Procedure, shortened: as §1

[4] = tested on: JHH-7 (Hepatocellular Carcinoma)
Procedure, shortened: as §1

[5] = tested on: HuP-T3 (Pancreatic Carcinoma)
Procedure, shortened: as §1

[6] = tested on: H-EMC-SS (Chondrosarcoma)
Procedure, shortened: as §1

[7] = tested on: NCI-H2405 (Lung Adenocarcinoma)
Procedure, shortened: as §1

[8] = tested on: KP-2 (Pancreatic Carcinoma)
Procedure, shortened: as §1

[9] = tested on: OVISE (Ovarian Carcinoma)
Procedure, shortened: as §1

[10] = tested on: NCI-H1573 (Lung Adenocarcinoma)
Procedure, shortened: as §1

[11] = tested on: VMRC-LCD (Lung Adenocarcinoma)
Procedure, shortened: as §1

[12] = tested on: EBC-1 (Squamous Cell Lung Carcinoma)
Procedure, shortened: as §1

[13] = tested on: SNU-C1 (Colorectal Carcinoma)
Procedure, shortened: as §1

SMILES | combination Emax [1] | combination Emax [2] | combination Emax (GI-1 (Glioblastoma)) | combination Emax [3] | combination Emax [4] | combination Emax [5] | combination Emax [6] | combination Emax [7] | combination Emax [8] | combination Emax [9] | combination Emax [10] | combination Emax [11] | combination Emax [12] | combination Emax [13]
CCN(CCO)CCCOc1ccc2c(Nc3cc(CC(=O)Nc4cccc(F)c4)[nH]n3)ncnc2c1 [AZD2811] + C[C@@H]1COCCN1C2=NC(=NC(=C2)C3(CC3)[S@](=N)(=O)C)C4=C5C=CNC5=NC=C4 [AZD6738] (first compound max 1 µM, 7x7, partner max 10 µM) | 0.779 | 0.994 | 0.922 | 0.336 | 0.275 | 0.589 | 0.412 | 0.26 | 0.12 | 0.663 | 0.479 | 0.708 | 0.32 | 0.435
CN(CCO)CC[C@H](CSc1ccccc1)Nc1ccc(S(=O)(=O)NC(=O)c2ccc(N3CCC([C@@H](O)c4ccccc4-c4ccc(Cl)cc4)CC3)cc2)cc1S(=O)(=O)C(F)(F)F [AZD4320] + Cn1cnc2c(F)c(Nc3ccc(Br)cc3Cl)c(C(=O)NOCCO)cc21 [Selumetinib] (first compound max 1 µM, 7x7, partner max 3 µM) | 0.937 | 0.963 | 0.801 | 0.67 | 0.276 | 0.471 | 0.691 | 0.572 | 0.962 | 0.786 | 0.4 | 0.226 | 0.991 | 0.944
CC(=O)c1c(C)c2cnc(Nc3ccc(N4CCNCC4)cn3)nc2n(C2CCCC2)c1=O [Palbociclib] + Cc1c2c(nn1C)CSCc1cc(n(C)n1)CSc1cc(c3ccccc3c1)OCCCc1c(C(=O)O)n(C)c3c-2c(Cl)ccc13 [AZD5991] (first compound max 10 µM, 7x7, partner max 1 µM) | 0.435 | 0.88 | 0.455 | 0.217 | 0.203 | 0.266 | 0.502 | 0.269 | 0.225 | 0.25 | 0.434 | 0.337 | 0.36 | 0.142
Cc1c2c(nn1C)CSCc1cc(n(C)n1)CSc1cc(c3ccccc3c1)OCCCc1c(C(=O)O)n(C)c3c-2c(Cl)ccc13 [AZD5991] + C[C@@H]1COCCN1C2=NC(=NC(=C2)C3(CC3)[S@](=N)(=O)C)C4=C5C=CNC5=NC=C4 [AZD6738] (first compound max 1 µM, 7x7, partner max 10 µM) | 0.767 | 0.965 | 0.995 | 0.331 | 0.268 | 0.666 | 0.511 | 0.353 | 0.259 | 0.615 | 0.516 | 0.559 | 0.491 | 0.333
Cc1c2c(nn1C)CSCc1cc(n(C)n1)CSc1cc(c3ccccc3c1)OCCCc1c(C(=O)O)n(C)c3c-2c(Cl)ccc13 [AZD5991] + C[C@@H](Nc1cc(F)cc(F)c1)c1cc(C(=O)N(C)C)cc2c(=O)cc(N3CCOCC3)oc12 [AZD8186] (first compound max 1 µM, 7x7, partner max 3 µM) | 0.212 | 0.93 | 0.883 | 0.378 | 0.169 | 0.288 | 0.476 | 0.165 | 0.254 | 0.325 | 0.318 | 0.196 | 0.307 | 0.439
Cn1cnc2c(F)c(Nc3ccc(Br)cc3Cl)c(C(=O)NOCCO)cc21 [Selumetinib] + C[C@@H]1COCCN1C2=NC(=NC(=C2)C3(CC3)[S@](=N)(=O)C)C4=C5C=CNC5=NC=C4 [AZD6738] (first compound max 10 µM, 7x7, partner max 10 µM) | 0.89 | 0.947 | 0.781 | 0.463 | 0.311 | 0.517 | 0.296 | 0.401 | 0.483 | 0.54 | 0.663 | 0.732 | 0.934 | 0.641
CC1(C)CCC(CN2CCN(c3ccc(C(=O)NS(=O)(=O)c4ccc(NCC5CCOCC5)c([N+](=O)[O-])c4)c(Oc4cnc5[nH]ccc5c4)c3)CC2)=C(c2ccc(Cl)cc2)C1 [Venetoclax] + Cc1cc2ncnn2cc1Nc1ncc2c(n1)n(C1CCOCC1)c(=O)n2C [AZD7648] (first compound max 1 µM, 7x7, partner max 10 µM) | 0.225 | 0.811 | 0.238 | 0.194 | 0.134 | 0.166 | 0.327 | 0.103 | 0.175 | 0.275 | 0.173 | 0.179 | 0.26 | 0.227
Cn1cnc2c(F)c(Nc3ccc(Br)cc3Cl)c(C(=O)NOCCO)cc21 [Selumetinib] + CC(C)n1c(=O)n(C)c2cnc3cc(F)c(-c4ccc(OCCCN5CCCCC5)nc4)cc3c21 [AZD1390] (first compound max 10 µM, 7x7, partner max 0.3 µM) | 0.917 | 0.621 | 0.216 | 0.379 | 0.262 | 0.368 | 0.197 | 0.364 | 0.463 | 0.184 | 0.264 | 0.15 | 0.934 | 0.635
